Like-named read-outs stand apart in the source and are kept apart here.
Legend:
[1] = target: T1, Cannabinoid CB2 Receptor (Homo sapiens, UniProt P34972); assay: Binding assay, cannabinoid CB2 receptor ([3H]-CP-55,940 displacement, SK-N-MC cell membranes); settings: test concentration of 0.2 μM; human CB2 in SK-N-MC membranes; read-out: Cannabinoid CB2 Receptor Binding, percent inhibition
T1 construct: expressed in transfected cells; semi-purified membrane pellet
Method: (§1) Binding Assay for CB1 or CB2 Agonists or Inverse Agonists
(§2) The human CB1 and CB2 receptors were stably expressed in SK-N-MC cells transfected with pcDNA3 CB-1 (human) or pcDNA3 CB-2 (human). The cells were grown in T-180 cell culture flasks under standard cell culture conditions at 37° C. in a 5% CO2 atmosphere. The cells were harvested by trysinization and homogenized in a homogenization buffer (10 mM Tris, 0.2 mM MgCl2, 5 mM KCl, with protease inhibitors aprotinin, leupeptin, pepstatin A and bacitracin) and centrifuged (2000 g). The supernatant was then centrifuged in 2M sucrose (31,300 g) to produce a semi-purified membrane pellet. The pellet was resuspended in homogenization and store at −80° C.
(§3) On the day of the assay, the pellet was thawed on ice and diluted in assay buffer (50 mM Tris-HCl, 5 mM MgCl2, 2.5 mM EDTA, 0.5 mg/mL fatty acid free bovine serum albumin, pH 7.5). The diluted membrane was added with buffer, test compound or standard and the radioligand [H]^3+-CP-55,940 (0.2 nM) to the wells of a 96-well polypropylene plate. Non-specific binding was measured in wells containing 10 uM WIN 55,212. The plate was covered and incubated for 90 minutes at 30° C. The contents were then aspirated onto a Packard Unifilter GF/C filter bottom plate prewet with 0.5% polyethyleneimine. The wells of the polypropylene plate were rinsed and aspirated seven times with a 0.9% saline-0.5% Tween 20 solution. The Unifilter plate was dried, a scintillation cocktail was added to each well and the counts representing binding were quantitated in a TopCount scintillation counter.
For compounds tested, an IC50 binding value was obtained from percent inhibition studies in which various test concentrations were used. The binding value (in μM) was calculated by linear regression. For compounds without an IC50 binding value, the percent inhibition (in %) was obtained at a test concentration of 0.2 μM.

[2] = target: T2, Cannabinoid CB1 Receptor (Homo sapiens, UniProt P21554); assay: Binding assay, cannabinoid CB1 receptor ([3H]-CP-55,940 displacement, SK-N-MC cell membranes); settings: for inhibition at 0.2 µM: read-out: Cannabinoid CB1 Receptor Binding, percent inhibition
T2 construct: expressed in transfected cells; semi-purified membrane pellet
Method: as §1, §2
as §3, with “The diluted membrane was added with buffer, test compound or standard and the radioligand [H]^3+-CP-55,940 (0.2 nM) to the wells of a 96-well polypropylene plate. Non-specific binding was measured in wells containing 10 uM WIN 55,212.” left out
For compounds tested, an IC50 binding value was obtained from percent inhibition studies in which various test concentrations were used. The binding value (in μM) was calculated by linear regression.

[3] = test concentration of 0.2 μM, human CB1 in SK-N-MC membranes

T1 sequence (P34972 whole entry): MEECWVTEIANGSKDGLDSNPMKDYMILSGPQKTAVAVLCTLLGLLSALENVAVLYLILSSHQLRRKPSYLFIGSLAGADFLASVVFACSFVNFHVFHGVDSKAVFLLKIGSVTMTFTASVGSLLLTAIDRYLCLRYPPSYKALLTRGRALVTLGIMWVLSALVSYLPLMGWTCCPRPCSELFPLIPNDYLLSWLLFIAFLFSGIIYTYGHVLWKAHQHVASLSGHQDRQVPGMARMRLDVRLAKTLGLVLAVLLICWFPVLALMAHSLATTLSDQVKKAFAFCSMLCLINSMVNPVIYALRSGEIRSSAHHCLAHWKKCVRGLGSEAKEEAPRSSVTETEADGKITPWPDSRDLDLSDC
T2 sequence (P21554 whole entry): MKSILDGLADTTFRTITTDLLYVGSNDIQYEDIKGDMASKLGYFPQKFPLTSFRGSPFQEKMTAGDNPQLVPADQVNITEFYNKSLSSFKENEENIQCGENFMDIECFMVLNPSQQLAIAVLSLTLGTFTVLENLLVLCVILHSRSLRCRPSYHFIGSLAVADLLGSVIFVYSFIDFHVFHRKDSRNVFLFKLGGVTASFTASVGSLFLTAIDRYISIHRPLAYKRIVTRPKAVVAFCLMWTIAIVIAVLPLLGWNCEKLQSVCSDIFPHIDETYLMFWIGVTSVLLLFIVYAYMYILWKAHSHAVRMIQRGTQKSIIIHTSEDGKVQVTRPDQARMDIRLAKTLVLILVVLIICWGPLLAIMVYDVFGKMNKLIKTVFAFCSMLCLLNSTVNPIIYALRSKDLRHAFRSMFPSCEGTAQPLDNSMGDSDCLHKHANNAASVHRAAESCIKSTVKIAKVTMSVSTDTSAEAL

| Structure (SMILES) | inhibition at 0.2 µM [1] | inhibition at 0.2 µM [2, 3] | IC50 [2] | inhibition at 0.2 µM [2] |
| --- | --- | --- | --- | --- |
| O=C(c1nn(-c2ccc(Cl)cc2Cl)c2c1COC/C2=C\c1ccc(F)cc1)N1CCC[C@H]1CO [Cpd 21, (7Z)-[1-(2,4-dichloro-phenyl)-7-(4-fluoro-benzylidene)-1,4,6,7-tetrahydro-pyrano[4,3-c]pyrazol-3-yl]-[(2S)-2-hydroxymethyl-pyrrolidin-1-yl]-methanone] | 15% | 59% |  |  |
| O=C(NN1CC2CCCC2C1)c1nn(-c2ccc(Cl)cc2Cl)c2c1COCC2Cc1ccc(F)cc1 (centres unmarked) [Cpd 22, 1-(2,4-dichloro-phenyl)-7-(4-fluoro-benzyl)-1,4,6,7-tetrahydro-pyrano[4,3-c]pyrazole-3-carboxylic acid (hexahydro-cyclopenta[c]pyrrol-2-yl)-amide] | 18% | 66% |  |  |
| O=C(NN1CCCCC1)c1nn(-c2ccc(Cl)cc2Cl)c2c1COCC2Cc1ccc(F)cc1 (centres unmarked) [Cpd 23, 1-(2,4-dichloro-phenyl)-7-(4-fluoro-benzyl)-1,4,6,7-tetrahydro-pyrano[4,3-c]pyrazole-3-carboxylic acid piperidin-1-ylamide] | 19% | 59% |  |  |
| C[C@@H](NC(=O)c1nn(-c2ccc(Cl)cc2Cl)c2c1COCC2Cc1ccc(F)cc1)c1ccccc1 (stereo partly drawn) [Cpd 24, 1-(2,4-dichloro-phenyl)-7-(4-fluoro-benzyl)-1,4,6,7-tetrahydro-pyrano[4,3-c]pyrazole-3-carboxylic acid [(R)-1-phenyl-ethyl]-amide] | 13% | 66% |  |  |
| CN1CCN(NC(=O)c2nn(-c3ccc(Cl)cc3Cl)c3c2COCC3Cc2ccc(F)cc2)CC1 (centres unmarked) [Cpd 26, 1-(2,4-dichloro-phenyl)-7-(4-fluoro-benzyl)-1,4,6,7-tetrahydro-pyrano[4,3-c]pyrazole-3-carboxylic acid (4-methyl-piperazin-1-yl)-amide] | 13% | 8% |  |  |
| CC1CCCC(C)N1NC(=O)c1nn(-c2ccc(Cl)cc2Cl)c2c1COC/C2=C\c1ccc(F)cc1 (centres unmarked) [Cpd 27, (7Z)-1-(2,4-dichloro-phenyl)-7-(4-fluoro-benzylidene)-1,4,6,7-tetrahydro-pyrano[4,3-c]pyrazole-3-carboxylic acid (2,6-dimethyl-piperidin-1-yl)-amide] | 20% | 77% | 40 nM |  |
| O=C(NNC1CCCCC1)c1nn(-c2ccc(Cl)cc2Cl)c2c1COC/C2=C\c1ccc(F)cc1 [Cpd 29, (7Z)-1-(2,4-dichloro-phenyl)-7-(4-fluoro-benzylidene)-1,4,6,7-tetrahydro-pyrano[4,3-c]pyrazole-3-carboxylic acid N′-cyclohexyl-hydrazide] | 0% | 52% |  |  |
| CN1CCN(NC(=O)c2nn(-c3ccc(Cl)cc3Cl)c3c2COC/C3=C\c2ccc(F)cc2)CC1 [Cpd 30, (7Z)-1-(2,4-dichloro-phenyl)-7-(4-fluoro-benzylidene)-1,4,6,7-tetrahydro-pyrano[4,3-c]pyrazole-3-carboxylic acid (4-methyl-piperazin-1-yl)-amide] | 0% | 3% |  |  |
| O=C(NN1CCN(CCO)CC1)c1nn(-c2ccc(Cl)cc2Cl)c2c1COC/C2=C\c1ccc(F)cc1 [Cpd 31, (7Z)-1-(2,4-dichloro-phenyl)-7-(4-fluoro-benzylidene)-1,4,6,7-tetrahydro-pyrano[4,3-c]pyrazole-3-carboxylic acid [4-(2-hydroxy-ethyl)-piperazin-1-yl]-amide] | 15% | 10% |  |  |
| C[C@@H](NC(=O)c1nn(-c2ccc(Cl)cc2Cl)c2c1COC/C2=C\c1cccs1)c1ccccc1 [Cpd 32, (7Z)-1-(2,4-dichloro-phenyl)-7-thiophen-2-ylmethylene-1,4,6,7-tetrahydro-pyrano[4,3-c]pyrazole-3-carboxylic acid [(R)-1-phenyl-ethyl]-amide] | 11% | 76% | 20 nM |  |
| C[C@@H](NC(=O)c1nn(-c2ccc(Cl)cc2Cl)c2c1COC/C2=C\c1cccs1)C1CCCCC1 [Cpd 33, (7Z)-1-(2,4-dichloro-phenyl)-7-thiophen-2-ylmethylene-1,4,6,7-tetrahydro-pyrano[4,3-c]pyrazole-3-carboxylic acid [(R)-1-cyclohexyl-ethyl]-amide] | 15% | 88% | 10 nM |  |
| O=C(NN1CCCC1)c1nn(-c2ccc(Cl)cc2Cl)c2c1COC/C2=C\c1cccs1 [Cpd 34, (7Z)-1-(2,4-dichloro-phenyl)-7-thiophen-2-ylmethylene-1,4,6,7-tetrahydro-pyrano[4,3-c]pyrazole-3-carboxylic acid pyrrolidin-1-ylamide] | 7% | 54% |  |  |
| O=C(NN1CCCCC1)c1nn(-c2ccc(Cl)cc2Cl)c2c1COC/C2=C\c1cccs1 [Cpd 35, (7Z)-1-(2,4-dichloro-phenyl)-7-thiophen-2-ylmethylene-1,4,6,7-tetrahydro-pyrano[4,3-c]pyrazole-3-carboxylic acid piperidin-1-ylamide] | 12% | 68% |  |  |
| O=C(NN1CCCCCC1)c1nn(-c2ccc(Cl)cc2Cl)c2c1COC/C2=C\c1cccs1 [Cpd 36, (7Z)-1-(2,4-dichloro-phenyl)-7-thiophen-2-ylmethylene-1,4,6,7-tetrahydro-pyrano[4,3-c]pyrazole-3-carboxylic acid azepan-1-ylamide] | 16% | 84% | 20 nM |  |
| CC1CCCC(C)N1NC(=O)c1nn(-c2ccc(Cl)cc2Cl)c2c1COC/C2=C\c1cccs1 (centres unmarked) [Cpd 37, (7Z)-1-(2,4-dichloro-phenyl)-7-thiophen-2-ylmethylene-1,4,6,7-tetrahydro-pyrano[4,3-c]pyrazole-3-carboxylic acid (2,6-dimethyl-piperidin-1-yl)-amide] | 20% | 61% |  |  |
| O=C(NN1CC2CCCC2C1)c1nn(-c2ccc(Cl)cc2Cl)c2c1COC/C2=C\c1cccs1 (centres unmarked) [Cpd 38, (7Z)-1-(2,4-dichloro-phenyl)-7-thiophen-2-ylmethylene-1,4,6,7-tetrahydro-pyrano[4,3-c]pyrazole-3-carboxylic acid (hexahydro-cyclopenta[c]pyrrol-2-yl)-amide] | 16% | 79% | 30 nM |  |
| C[C@@H](NC(=O)c1nn(-c2ccc(Cl)cc2Cl)c2c1COC/C2=C\c1ccsc1)C1CCCCC1 [Cpd 39, (7Z)-1-(2,4-dichloro-phenyl)-7-thiophen-3-ylmethylene-1,4,6,7-tetrahydro-pyrano[4,3-c]pyrazole-3-carboxylic acid [(R)-1-cyclohexyl-ethyl]-amide] | 13% |  | 20 nM | 84% |
| C[C@@H](NC(=O)c1nn(-c2ccc(Cl)cc2Cl)c2c1COC/C2=C\c1ccsc1)c1ccccc1 [Cpd 40, (7Z)-1-(2,4-dichloro-phenyl)-7-thiophen-3-ylmethylene-1,4,6,7-tetrahydro-pyrano[4,3-c]pyrazole-3-carboxylic acid [(R)-1-phenyl-ethyl]-amide] | 21% |  | 10 nM | 84% |
| C[C@H](NC(=O)c1nn(-c2ccc(Cl)cc2Cl)c2c1COC/C2=C\c1ccsc1)C1CCCCC1 [Cpd 41, (7Z)-1-(2,4-dichloro-phenyl)-7-thiophen-3-ylmethylene-1,4,6,7-tetrahydro-pyrano[4,3-c]pyrazole-3-carboxylic acid [(S)-1-cyclohexyl-ethyl]-amide] | 21% |  |  | 56% |
| C[C@H](NC(=O)c1nn(-c2ccc(Cl)cc2Cl)c2c1COC/C2=C\c1ccsc1)c1ccccc1 [Cpd 42, (7Z)-1-(2,4-dichloro-phenyl)-7-thiophen-3-ylmethylene-1,4,6,7-tetrahydro-pyrano[4,3-c]pyrazole-3-carboxylic acid [(S)-1-phenyl-ethyl]-amide] | 16% |  |  | 57% |

From patent publication US20100069341A1, “TETRAHYDRO-PYRANOPYRAZOLE CANNABINOID MODULATORS” (priority 2005, published 2010)
